The results in this text go back to patent US20220289688A1, “RNA-TARGETING LIGANDS, COMPOSITIONS THEREOF, AND METHODS OF MAKING AND USING THE SAME” (THE UNIVERSITY OF NORTH CAROLINA AT CHAPEL HILL, priority 2019, published 2022).

The subject of one data set is TPP riboswitch RNA. In words: Isothermal titration calorimetry (ITC), ligand titrated into RNA. It counts as binding. The settings on record: for Binding affinity relative to a named comparator compound / Kd / Kd (μM): ITC; for Binding affinity relative to a named comparator compound: comparator named in value; for Effect of modification on RNA binding affinity (FIG. 5): linked fragments 17 and 31, dissociation constants by ITC. For orientation: In ITC the heat of successive injections is recorded.

The next data set deals with 2-TPP RNA complex. As to the kind of experiment: ITC with primary binding fragment pre-bound to the RNA. Conditions: for Binding cooperativity with 2: ITC in presence and absence of pre-bound 2; for Kd: ITC. Here is the method: (§1) ITC experiments were performed using a Microcal PEAQ-ITC automated instrument (Malvern Analytical) under RNase-free conditions^41. In vitro transcribed RNA was exchanged into folding buffer containing 100 mM CHES, pH 8.0, 200 mM potassium acetate, and 3 mM MgCl2 using centrifugal concentration (Amicon Ultra centrifugal filters, 10K MWCO, Millipore-Sigma). Ligands were dissolved into the same buffer (to minimize heat of mixing upon addition of ligand to RNA) at a concentration 10-20 times the desired experimental concentration of RNA. RNA concentration was quantified (Nanodrop UV-VIS spectrometer; ThermoFisher Scientific), diluted to 1-10 times the expected […] in buffer, and the diluted RNA was re-quantified to confirm the final experimental RNA concentration. The RNA, diluted in folding buffer, was heated at 65° C. for 5 minutes, placed on ice for 5 minutes, and allowed to fold at 37° C. for 15 minutes. if needed, the primary binding ligand (for example, 2) was pre-bound to the RNA by adding 0.1 volume at 10 times the desired final concentration of the bound ligand, followed by incubation at room temperature for 10 minutes.
Each ITC experiment involved two runs: one in which the ligand was titrated into RNA (the experimental trace) and one in which the same ligand was titrated into buffer (the control trace). ITC experiments were performed using the following parameters: 25° C. cell temperature, 8 μCal/sec reference power, 750 RPM stirring speed, high feedback mode, 0.2 μL initial injection, followed by 19 injections of 2 μL. Each injection required 4 seconds to complete, and there was a 180-second spacing between injections.
ITC data was analyzed using MicroCal PEAQ-ITC Analysis Software (Malvern Analytical). First, the baseline for each injection peak was manually adjusted to resolve any incorrectly selected injection endpoints. Second, the control trace was subtracted from the experimental trace by point-to-point subtraction. Third, a least-squares regression line was fit to the data using the Levenberg-Marquardt algorithm. In the case of weakly binding ligands (>500 μM), N was manually set to 1.0 to enable fitting of low c-value curves.

Data set [1] in a line: Solubility at concentrations required for ITC. In kind it is physicochemical. Conditions: ITC buffer. How it is done:
as §1

Data set [2] deals with TPP riboswitch region of the screening construct. In words: SHAPE second-fragment screen of RNA construct pre-bound to primary fragment. It counts as binding. The settings on record: RNA pre-bound to 2 or S12; fragment 1 mM. How it is done:
For the first-fragment-ligand screen, 5 pmol of RNA per well were diluted to […] in RNase-free water on a 4° C. cooling block. The plate was heated at 95° C. for 2 minutes, immediately followed by snap cooling at 4° C. for 5 minutes. To each well was added 19.6 μL of 2× folding buffer (final concentrations 50 mM HEPES pH 8.0, 200 mM potassium acetate, and 10 mM MgCl2), and plates were incubated at 37° C. for 30 minutes. […] To combine the target RNA with fragment, 24.3 μL of RNA solution or RNA plus primary binding fragment were added to wells containing 2.7 μL of 10× screening fragments (in DMSO to yield a final fragment concentration of 1 mM). Solutions were mixed thoroughly by pipetting and incubated for 10 minutes at 37° C. […]
Once screening of test fragments is complete, statistical tests are carried out to identify differences in modification rates of a given nucleotide. […] That is, if m1 modifications of a tested nucleotide were counted among n1 reads in sample 1 and m2 modifications were counted among n2 reads in sample 2, the tested null hypothesis predicts that among all the counted modifications (m1+m2), the proportion of modifications in sample 1 will be p1=n1/(n1+n2). […]

Where [3] appears, read: fragment 5 analogs, pendant groups, Table 4, read-out: Kd.
The mark [4] stands for this setting: fragment 2 analogs, pendant groups, Table 2B, read-out: Kd.
[5] abbreviates: primary fragment pre-bound to TPP riboswitch RNA, Table 6, read-out: Kd (mM) 5 pre-bound.
Where [6] appears, read: no ligand pre-bound, Table 6, read-out: Kd (mM) No ligand bound.
[7] abbreviates: primary-screen hits, Table 1, value ± error, read-out: Kd.
Setting [8] is: fragment 5 analogs, pendant groups, Table 4.

Several values for one entry are separate records, joined by “and”; a condition that tells them apart may be missing. Equal entries are not always repeated. Entries after “also recorded” stand apart in the source; their conditions may differ. Where two headings read alike, the source gives them in different places.

One may read the Kd as the concentration at which binding is half-saturated. Turning to `COC(=O)c1ccc(Cl)cc1Cl` [compound 812], in the data set with TPP riboswitch RNA, the “Binding affinity relative to a named comparator compound” value is on record as “approximately threefold higher affinity for the TPP riboswitch than did fragment 5”. Besides, the equilibrium dissociation constant (Kd) on TPP riboswitch RNA (setting [3]) turned out to be 93 µM. As to `CCOc1ccc(C(=O)OC)cc1` [compound 87], the Kd at TPP riboswitch RNA (setting [3]) came to 1800 µM. Regarding `Cc1ccc2nccnc2c1` [Compound 20], at TPP riboswitch RNA (setting [4]), the equilibrium dissociation constant (Kd) was found to be 33 µM.

With `CN(C)CCNCc1ccc2nccnc2c1` [Compound 38], in the data set with TPP riboswitch RNA, the “Binding affinity relative to a named comparator compound” value was “reduced affinity relative to compound 37” and the “Effect of modification on RNA binding affinity (FIG. 5)” value (from here on “Effect of modification”) was “neutral modifications”. Regarding `NC(=O)c1cnc2ccccc2n1` [Compound 25], the Kd at TPP riboswitch RNA (setting [4]) was 600 µM. With `c1cc(N2CCNCC2)ccn1` [Compound 31], the “Binding cooperativity with 2” value in the data set with 2-TPP RNA complex is reported as “clear, but modest, binding cooperativity with 2”. Moreover, the Kd is around 3 mM on 2-TPP RNA complex (2 pre-bound to the TPP riboswitch RNA, read-out: Kd); 3 mM on 2-TPP RNA complex (setting [5]); 10000 µM and ≥ 10000 µM on TPP riboswitch RNA (fragment alone, read-out: Kd); above 10000 µM on TPP riboswitch RNA (setting [6]). As to `COc1ccc2nsnc2c1` [Compound 3], the equilibrium dissociation constant (Kd) on TPP riboswitch RNA (setting [7]) was found to be 95 ± 3 µM. On to `COC(=O)c1ccc(Cl)c(Cl)c1` [compound 811], for which the Kd on TPP riboswitch RNA (setting [3]) came out at 820 µM. Turning to `Cc1cc(N2CCNCC2)c2ccccc2n1` [Compound 28], the “Solubility at concentrations required for ITC” value (shortened to “Solubility”) in data set [1] is “insoluble”. In the case of `OCc1ccc2nccnc2c1` [Compound 15], the dissociation constant (Kd) at TPP riboswitch RNA (setting [4]) was found to be 18 µM. Still for that read-out and setting: as for `O=Cc1ccc2nccnc2c1` [Compound 18], the figure is 35 µM.

As for `NCCCN1CCN(c2ccncc2)CC1` [Compound 33], the Kd on TPP riboswitch RNA (setting [6]) is above 10000 µM.

For `Cc1cnccc1N1CCNCC1` [Compound 32], the “Binding cooperativity with 2” value with 2-TPP RNA complex is listed as “clear, but modest, binding cooperativity with 2”. Further, the dissociation constant Kd on 2-TPP RNA complex (setting [5]) is 4 mM; on TPP riboswitch RNA (setting [6]), above 10000 µM. Regarding `COC(=O)c1ccc2nccnc2c1` [Compound 19], the Kd on TPP riboswitch RNA (setting [4]) was 58 µM; on TPP riboswitch RNA (read-out: Kd), 5 µM. For the compound `COC(=O)c1ccc([N+](=O)[O-])cc1` [compound 86], on TPP riboswitch RNA (setting [3]), the Kd was determined as 390 µM. Consider `c1cnc2cc(CNc3cncc(N4CCNCC4)c3)ccc2n1` [Compound 40], for which, in the data set on TPP riboswitch RNA, the “Binding affinity relative to a named comparator compound” value was “reduces affinity relative to compound 37” and the “Effect of modification” value is on record as “negative modification”. For `O=C(CCNc1ccc2nccnc2c1)NO` [Compound 36], in that order: “fivefold higher binding affinity than the amide-linked version; also recorded: affinity similar to that of the parent fragment 17” and “increase RNA binding affinity”. For `c1cc(N2CCNCC2)c(CNCc2ccc3nccnc3c2)cn1` [Compound 39], in that order: “reduces affinity relative to compound 37” and “negative modification”.

In the case of `NS(=O)(=O)c1ccc(Cl)cc1` [compound 816], at TPP riboswitch RNA (setting [3]), the Kd turned out to be 1300 µM. Turning to `O=C(CCC(=O)Nc1ccc2nccnc2c1)NO` [Compound 35], in the data set with TPP riboswitch RNA, the “Effect of modification” value is given as “negative modification”. For the compound `COC(=O)c1ccc(C(F)(F)F)cc1` [compound 89], the “Kd (μM)” value at TPP riboswitch RNA (setting [8]) is listed as “no binding”. On to `CCOC(=O)c1ccc(Cl)cc1` [compound 813], for which, on TPP riboswitch RNA (setting [3]), the dissociation constant Kd is 600 µM. As for `O=C(O)c1cncc(-c2cccs2)c1` [Compound 8], the “Solubility” value in data set [1] is recorded as “insoluble”. `c1cc(N2CCCCC2)c(NCc2ccc3nccnc3c2)cn1` [Compound 37]: the equilibrium dissociation constant (Kd) on TPP riboswitch RNA (read-out: Kd (affinity)) was 0.625 µM. For the same compound, the “Effect of modification” value with TPP riboswitch RNA was “increase RNA binding affinity”.

As for `COC(=O)c1ccc(Cl)nc1` [Compound 5], the Kd on TPP riboswitch RNA (setting [7]) worked out at 265 ± 80 µM. For the compound `COC(=O)c1ccc(Oc2ccccc2)cc1` [compound 810], the “Kd (μM)” value on TPP riboswitch RNA (setting [8]) was “no binding”. Consider `Nc1ccc2nccnc2c1` [Compound 2], for which the Kd was 25 µM at TPP riboswitch RNA (fragment 2 analogs, quinoxaline core modifications, Table 2A, read-out: Kd); 25 ± 6 µM at TPP riboswitch RNA (setting [7]); 25 µM on TPP riboswitch RNA (read-out: Kd). Turning to `Fc1cccc2nccnc12` [Compound 23], the Kd at TPP riboswitch RNA (setting [4]) came out at 220 µM. In the case of `Nc1cnc2ccccc2n1` [Compound 24], at TPP riboswitch RNA (setting [4]), the Kd amounted to 379 µM. As to `Cc1ncc(C[n+]2csc(CCOP(=O)([O-])OP(=O)(O)O)c2C)c(N)n1` [Compound 9, thiamine pyrophosphate, reference compound], on TPP riboswitch RNA (setting [7]), the Kd was determined as 0.029 ± 0.002 µM. Turning to `COC(=O)c1ccc(N)cc1` [compound 88], at TPP riboswitch RNA (setting [3]), the Kd was determined as 1100 µM.

With `O=C(O)c1csc2ccc(Cl)cc12` [Compound 29], the “SHAPE result of second-round screen” value in data set [2] is “caused changes in other areas of the RNA consistent with nonspecific interactions”.

In the case of `NC(=O)c1ccc(Cl)cc1` [compound 815], the Kd on TPP riboswitch RNA (setting [3]) was determined as 1800 µM. For `C#Cc1ccc2nccnc2c1` [Compound 1], the Kd at TPP riboswitch RNA (setting [7]) is 11 ± 0.2 µM.

`NCc1ccc(-c2csnn2)cc1` [Compound 4]: the Kd at TPP riboswitch RNA (setting [7]) came to 220 ± 10 µM.

In the case of `CCS(=O)(=O)c1ccc(Cl)cc1` [compound 817], at TPP riboswitch RNA (setting [8]), the “Kd (μM)” value is recorded as “no binding”.

Regarding `c1cc2[nH]cnc2cn1` [Compound 6], the Kd at TPP riboswitch RNA (fragment 5 analogs, pyridine core modifications, Table 3, read-out: Kd) came to 266 µM; on TPP riboswitch RNA (setting [7]), 650 ± 100 µM. As for `CN(C)C(=O)c1ccc(Cl)cc1` [compound 818], the “Kd (μM)” value at TPP riboswitch RNA (setting [8]) is given as “no binding”. `COC(=O)c1ccc(Br)cc1` [compound 85]: at TPP riboswitch RNA (setting [3]), the Kd worked out at 440 µM. As for `Nc1cnccc1N1CCNCC1` [Compound 34], the equilibrium dissociation constant (Kd) at TPP riboswitch RNA (setting [6]) is above 10000 µM. Take `O=C1CC(C(F)(F)F)=NN1` [Compound 7]: the “Solubility” value in data set [1] is “insoluble”. Take `OCc1ccc(Cl)cc1` [compound 814]: the Kd at TPP riboswitch RNA (setting [3]) came to 1300 µM.

Turning to `Nc1cccc2nccnc12` [Compound 21], the equilibrium dissociation constant (Kd) on TPP riboswitch RNA (setting [4]) was 75 µM.
